Literature values in patent publication US10858526B2, “Water-based ink composition for ink jet recording and coloring material liquid” (Seiko Epson Corporation, priority 2017, dated 2020).

Conditions: water-soluble organic solvent

Row | SMILES | water-octanol partition coefficient (log P)
1 | CCCCOCCOCCO [butyl diglycol] | 0.56
2 | CCCC(O)CCO (centres unmarked) [1,3-hexanediol] | 0.28
